Laboratory results from ChEMBL document CHEMBL1123796, “New antitumor agents containing the anthracene nucleus” (1987).

Columns and labels:
Assay type in all cases: functional
Mus musculus [1] = assay: Tested for high-dose toxicity in mice at a significant dose of 80 mg/kg administered intraperitoneally after 5 days of treatment; settings: route intraperitoneal
RPMI-8226 [2] = assay: Effect on RNA synthesis was determined by incorporation of radioligand into 8226 human myeloma cells at a concentration of 0.5 ug/mL. (*: >1 log cell kill)
RPMI-8226 [3] = assay: Effect on DNA synthesis was determined by incorporation of radioligand into 8226 human myeloma cells at a concentration of 10 ug/mL (*: >1 log cell kill)
P388 = assay: Antileukemic activity against P-388 in mice at a dose of 70 mg/kg administered intraperitoneally after 5 day treatment; settings: Mus musculus, P388, ip, 120 h, route intraperitoneal
Mus musculus [4] = assay: Tested for skin toxicity in BALB/c mice at a significant dose of 2.00 mg/kg administered intraintradermally and involved concentric circular areas of ulceration
L1210 = assay: Effect on DNA synthesis was determined by incorporation of radioligand into L1210 murine leukemia at a concentration of 10 ug/mL (*: >1 log cell kill); settings: Mus musculus

CN(C)CCNCc1c2ccccc2c(CNCCN(C)C)c2ccccc12
Lethality (Mus musculus [1]): 20%
Median day of death (Mus musculus [1]): 4
inhibition at 0.5 µg/mL (RPMI-8226 [2]): 7.3%
inhibition at 10 µg/mL (RPMI-8226 [3]): 82.2%
ILS at 70 mg/kg (P388): 10%
Extent of skin lesions (Mus musculus [4]): 2.6 cm**2
inhibition at 10 µg/mL (L1210): 75.7%
